Here are results for 14 compounds from patent US5140009A (Tap Pharmaceuticals, Inc., priority 1990, dated 1992).

Numbered stars: 1 amine (or outer) side, 2 acyl side, 3 side chain; on linkers, the order of the positions; unused ones are H or OH. Square brackets hold non-standard residues; d marks the D form. Peptide text beside a SMILES is read from it. * marks the point of attachment. Propanoyl(3-indol-3-yl) = O=C(CCc1c[nH]c2ccccc12)*; Indole2carbonyl(5-F) = O=C(c1cc2cc(F)ccc2[nH]1)*; Phenylacetyl(4-CF3) = O=C(Cc1ccc(C(F)(F)F)cc1)*; Propanoyl(3-(4-F-phenyl)) = O=C(CCc1ccc(F)cc1)*; Propanoyl(3-(4-MeO-Ph)) = COc1ccc(CCC(=O)*)cc1; Propanoyl(3-(4-Cl-Ph)) = O=C(CCc1ccc(Cl)cc1)*; Phenylacetyl(4-Cl) = O=C(Cc1ccc(Cl)cc1)*; Desaminotyrosyl = O=C(CCc1ccc(O)cc1)*; d2Nal = N[C@H](Cc1ccc2ccccc2c1)C(=O)O; X16 = O=C(c1cc2ccccc2[nH]1)*; Morpholide = C1CN(*)CCO1; X15 = O=C(Cc1ccc(O)cc1)*; CO = O=C([*:1])[*:2]

The target in the assay is T1, LHRH receptors (Rattus norvegicus, UniProt P30969).
T1 construct: Pituitary membranes containing LHRH receptors are prepared in batches from quick-frozen rat pituitaries; tissue Hilltop Labs; host or cells: rat pituitary membranes
T1 sequence (P30969 1-327): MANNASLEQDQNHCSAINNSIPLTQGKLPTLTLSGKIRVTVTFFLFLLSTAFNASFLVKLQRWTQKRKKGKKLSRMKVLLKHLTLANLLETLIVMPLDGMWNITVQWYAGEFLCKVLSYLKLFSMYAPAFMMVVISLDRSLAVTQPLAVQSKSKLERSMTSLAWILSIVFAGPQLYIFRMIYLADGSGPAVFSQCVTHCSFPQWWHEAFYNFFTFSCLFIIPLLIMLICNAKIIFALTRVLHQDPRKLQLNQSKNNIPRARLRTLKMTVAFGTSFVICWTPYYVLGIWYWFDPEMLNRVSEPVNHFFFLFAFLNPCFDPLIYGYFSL
Description: Receptor Binding (radioligand receptor binding assay). Particulars: table 3; rat pituitary membranes, radioiodinated [D-Leu^6 -des Gly^10 ]-LHRH ethyl amide 50 pM, 2 hours at 4° C.; read-out: Receptor Binding pkI (converted).

Consider `CCNC(=O)[C@@H]1CCCN1C(=O)[C@H](CCCNC(=N)N)NC(=O)[C@H](CC(C)C)NC(=O)[C@@H](Cc1ccc(O)cc1)NC(=O)[C@H](Cc1ccc(O)cc1)NC(=O)[C@H](CO)NC(=O)[C@@H](Cc1ccc(O)cc1)NC(=O)CCc1ccc(F)cc1` [Compound 93, (3-9)[N-(3-(4-Fluorophenyl)propionyl) -D-Tyr^3,6 -Pro^9 NHEt]LHRH] ({Propanoyl(3-(4-F-phenyl))}-[dY]SY[dY]LRP-NHEt), for which the Ki is 0.0158 nM.

For `CCNC(=O)[C@@H]1CCCN1C(=O)[C@H](CCCNC(=N)N)NC(=O)[C@H](CC(C)C)NC(=O)[C@@H](Cc1ccc2ccccc2c1)NC(=O)[C@H](Cc1ccc(O)cc1)NC(=O)[C@H](CO)NC(=O)[C@@H](Cc1c[nH]c2ccccc12)NC(=O)CCc1ccc(F)cc1` [Compound 94, (3-9)[N-(3-(4-Fluorophenyl)propionyl) -D-Trp^3 -D-2-Nal^6 -Pro^9 NHEt]LHRH] ({Propanoyl(3-(4-F-phenyl))}-[dW]SY[d2Nal]LRP-NHEt), the Ki is 0.309 nM.

As for `CCNC(=O)[C@@H]1CCCN1C(=O)[C@H](CCCNC(=N)N)NC(=O)[C@H](CC(C)C)NC(=O)[C@@H](Cc1c[nH]c2ccccc12)NC(=O)[C@H](Cc1ccc(O)cc1)NC(=O)[C@H](CO)NC(=O)[C@H](Cc1c[nH]c2ccccc12)NC(=O)CCc1ccc(OC)cc1` [Compound 95, (3-9)[N-(3-(4-Methoxyphenyl)propionyl) -Trp^3 -D-Trp^6 -Pro^9 NHEt]LHRH] ({Propanoyl(3-(4-MeO-Ph))}-WSY[dW]LRP-NHEt), the Ki was 0.0776 nM.

On to `CCNC(=O)[C@@H]1CCCN1C(=O)[C@H](CCCNC(=N)N)NC(=O)[C@H](CC(C)C)NC(=O)[C@@H](Cc1c[nH]c2ccccc12)NC(=O)[C@H](Cc1ccc(O)cc1)NC(=O)[C@H](CO)NC(=O)[C@H](Cc1c[nH]c2ccccc12)NC(=O)CCc1ccc(F)cc1` [Compound 97, (3-9)[N-(3-(4-Fluorophenyl)propionyl) -Trp^3 -D-Trp^6 -Pro^9 NHEt]LHRH] ({Propanoyl(3-(4-F-phenyl))}-WSY[dW]LRP-NHEt), for which the Ki was 0.0331 nM.

`CCNC(=O)[C@@H]1CCCN1C(=O)[C@H](CCCNC(=N)N)NC(=O)[C@H](CC(C)C)NC(=O)[C@@H](Cc1c[nH]c2ccccc12)NC(=O)[C@H](Cc1ccc(O)cc1)NC(=O)[C@H](CO)NC(=O)[C@H](Cc1c[nH]c2ccccc12)NC(=O)CCc1ccc(Cl)cc1` [Compound 98, (3-9)[N-(3-(4-Chlorophenyl)propionyl) -Trp^3 -D-Trp^6 -Pro^9 NHEt]LHRH] ({Propanoyl(3-(4-Cl-Ph))}-WSY[dW]LRP-NHEt): the Ki was 0.0525 nM.

Regarding `CCNC(=O)[C@@H]1CCCN1C(=O)[C@H](CCCN=C(N)N)NC(=O)[C@H](CC(C)C)NC(=O)[C@@H](Cc1c[nH]c2ccccc12)NC(=O)[C@H](Cc1ccc(O)cc1)NC(=O)[C@H](CO)NC(=O)[C@H](Cc1c[nH]c2ccccc12)NC(=O)CCc1ccc(O)cc1` [Compound 99, (3-9)[N-(3-(4-Hydroxyphenyl)propionyl) -Trp^3 -D-Trp^6 -Pro^9 NHEt]LHRH] (Desaminotyrosyl-WSY[dW]LRP-NHEt), the Ki was 0.0832 nM.

Take `CCNC(=O)[C@@H]1CCCN1C(=O)[C@H](CCCN=C(N)N)NC(=O)[C@H](CC(C)C)NC(=O)[C@@H](Cc1c[nH]c2ccccc12)NC(=O)[C@H](Cc1ccc(O)cc1)NC(=O)[C@@H]1CCCN1C(=O)[C@@H](Cc1c[nH]c2ccccc12)NC(=O)CCc1ccc(F)cc1` [Compound 100, (3-9)[N-(3-(4-Fluorophenyl)propionyl)-D -Trp^3,6 -Pro^4,9 NHEt]LHRH] ({Propanoyl(3-(4-F-phenyl))}-[dW]PY[dW]LRP-NHEt): the Ki was 2.88 nM.

Take `CCNC(=O)[C@@H]1CCCN1C(=O)[C@H](CCCN=C(N)N)NC(=O)[C@H](CC(C)C)NC(=O)[C@@H](Cc1c[nH]c2ccccc12)NC(=O)[C@H](Cc1ccc(O)cc1)NC(=O)[C@H](CO)NC(=O)[C@H](Cc1c[nH]c2ccccc12)NC(=O)c1cc2ccccc2[nH]1` [Compound 101, (3-9)[N-(2-Indolecarbonyl)-Trp^3 -D-Trp^6 -Pro^9 NHEt]LHRH] (X16-WSY[dW]LRP-NHEt): the Ki is 12.6 nM.

For the compound `CCNC(=O)[C@@H]1CCCN1C(=O)[C@H](CCCNC(=N)N)NC(=O)[C@H](CC(C)C)NC(=O)[C@@H](Cc1c[nH]c2ccccc12)NC(=O)[C@H](Cc1ccc(O)cc1)NC(=O)[C@H](CO)NC(=O)[C@@H](Cc1c[nH]c2ccccc12)NC(=O)c1cc2cc(F)ccc2[nH]1` [Compound 102, (3-9)[N-(5-Fluoro-2-indolecarbonyl)-D -Trp^3,6 -Pro^9 -NHEt]LHRH] ({Indole2carbonyl(5-F)}-[dW]SY[dW]LRP-NHEt), the Ki is 17.4 nM.

Regarding `CCNC(=O)[C@@H]1CCCN1C(=O)[C@H](CCCNC(=N)N)NC(=O)[C@H](CC(C)C)NC(=O)[C@@H](Cc1c[nH]c2ccccc12)NC(=O)[C@H](Cc1ccc(O)cc1)NC(=O)[C@H](CO)NC(=O)[C@@H](Cc1c[nH]c2ccccc12)NC(=O)CCc1c[nH]c2ccccc12` [Compound 103, (3-9)[N-(3-Indolepropionyl)-D-Trp^3,6 -Pro^9 -NHEt]LHRH] ({Propanoyl(3-indol-3-yl)}-[dW]SY[dW]LRP-NHEt), the Ki was 0.0794 nM.

Turning to `CCNC(=O)[C@@H]1CCCN1C(=O)[C@H](CCCNC(=N)N)NC(=O)[C@H](CC(C)C)NC(=O)[C@@H](Cc1c[nH]c2ccccc12)NC(=O)[C@H](Cc1ccc(O)cc1)NC(=O)[C@H](CO)NC(=O)[C@H](Cc1c[nH]c2ccccc12)NC(=O)Cc1ccc(Cl)cc1` [Compound 104, (3-9)[N-(4-Chlorophenyl)acetyl-Trp^3 -D-Trp^6 -Pro^9 NHEt]LHRH] ({Phenylacetyl(4-Cl)}-WSY[dW]LRP-NHEt), the Ki is 0.832 nM.

In the case of `CCNC(=O)[C@@H]1CCCN1C(=O)[C@H](CCCN=C(N)N)NC(=O)[C@H](CC(C)C)NC(=O)[C@@H](Cc1c[nH]c2ccccc12)NC(=O)[C@H](Cc1ccc(O)cc1)NC(=O)[C@H](CO)NC(=O)[C@H](Cc1c[nH]c2ccccc12)NC(=O)Cc1ccc(O)cc1` [Compound 105, (3-9)[N-(4-Hydroxyphenyl)acetyl-Trp^3 -D -Trp^6 -Pro^9 NHEt]LHRH] (X15-WSY[dW]LRP-NHEt), the Ki is 0.562 nM.

With `CCNC(=O)[C@@H]1CCCN1C(=O)[C@H](CCCNC(=N)N)NC(=O)[C@H](CC(C)C)NC(=O)[C@H](Cc1c[nH]c2ccccc12)NC(=O)[C@H](Cc1ccc(O)cc1)NC(=O)[C@H](CO)NC(=O)[C@H](Cc1c[nH]c2ccccc12)NC(=O)Cc1ccc(C(F)(F)F)cc1` [Compound 106, (3-9)[N-(4-Trifluoromethylphenyl)acetyl -Trp^3,6 -Pro^9 NHEt]LHRH] ({Phenylacetyl(4-CF3)}-WSYWLRP-NHEt), the Ki is 0.851 nM.

As for `CCNC(=O)[C@@H]1CCCN1C(=O)[C@H](CCCNC(=N)N)NC(=O)[C@H](CC(C)C)NC(=O)[C@@H](Cc1c[nH]c2ccccc12)NC(=O)[C@H](Cc1ccc(O)cc1)NC(=O)[C@H](CO)NC(=O)[C@@H](Cc1c[nH]c2ccccc12)NC(=O)[C@H](Cc1ccccc1)NC(=O)N1CCOCC1` [Compound 107, (2 9)[N-(N-alpha-Morpholinocarbonyl)-Phe^2 -D-Trp^3,6 -Pro^9 NHEt]LHRH] ({Morpholide-CO}-F[dW]SY[dW]LRP-NHEt), the Ki was 0.257 nM.
